The values below are quoted from earlier work in patent publication US7423042B2, “Compounds” (Glaxo Group Limited, priority 2005, dated 2008).

The structures appear in SMILES notation.

Data set [1] has as its system synthesis of pro-inflammatory proteins including IL-6, IL-8, GM-CSF, RANTES and COX-2. Particulars: a number of different cell types.
Data set [2] concerns TGF-β-induced increases in fibronectin and thrombospondin. Particulars: Laping et al., 2002.

On to `C[S+]([O-])c1ccc(-c2nc(-c3ccncc3)c(-c3ccc(F)cc3)[nH]2)cc1` (stereo not drawn) [SB-203580], for which, in data set [1], the “decreasing the synthesis of pro-inflammatory proteins (IL-6, IL-8, GM-CSF, RANTES, COX-2)” value is reported as “effective”.
Regarding `COc1nccc(-c2c(-c3ccc(F)cc3)ncn2C2CCNCC2)n1` [SB-242235], the “inhibition of TGF-β-induced increases in fibronectin and thrombospondin” value in data set [2] is “inhibited”.
As for `Fc1ccc(-c2nc3n(c2-c2ccncc2)CCS3)cc1` [SK&F 86002], in data set [1], the “decreasing the synthesis of pro-inflammatory proteins (IL-6, IL-8, GM-CSF, RANTES, COX-2)” value is recorded as “effective”.
